Results published in publication PMC5302928, “[^64Cu]XYIMSR-06: A dual-motif CAIX ligand for PET imaging of clear cell renal cell carcinoma” (Oncotarget, 2016).
Where two headings read alike, the source gives them in different places.

Key:
CAIX [1] = biological target: T1, CAIX (Homo sapiens, UniProt Q16790); assay: Competitive fluorescence polarization assay with FITC-labeled dual-motif ligand; conditions: 100 nM CAIX, 80 nM FITC-labeled ligand; read-out: IC50 (binding to CAIX, fluorescence polarization)
T1 construct: purchased R&D Systems (Minneapolis, MN)
Protocol: Fluorescence polarization (FP) experiments were performed in 21 μL of the assay buffer (12.5 mM Tris-HCl, pH 7.5, 75 mM NaCl) in transparent flat bottom 384 well Small Volume™ LoBase Microplates (Greiner Bio-One, Frickenhausen Germany). The FP reaction employed 100 nM of purified CAIX (R&D systems, Minneapolis, MN) and 80 nM FITC-labeled ligand within the assay buffer. The FP values were measured as mP units using the Safire2™ plate reader (Tecan, Morrisville, NC) with excitation at 475 nm and emission at 532 nm emission. 100 nM CAIX was incubated with serially diluted (from 8 μM to […]) concentrations of the three targeting molecules, 1 and [^63/65Cu]XYIMSR-06 for 30 min at room temperature in 384 well plates. 80 nM FITC-labeled ligand was added to each well and the reaction was incubated for 30 min at room temperature followed by FP measurements. Experiments were carried out in triplicate and the concentration resulting in 50% response (IC50) was calculated in GraphPad Prism 5 (GraphPad Software, La Jolla, CA) using the sigmoidal dose-response regression function. […]
amino)butyl)-1H-1,2,3-triazol-1-yl)butyl)-6,9-dioxa- (FP) assay as described in the experimental section. The 3,12,15,19,23-pentaazaoctacosyl)-1,4,7-triazonane-1,4- IC50 values determined for dual motif precursor 1 (Figure diyl)diacetic acid ([Al19F]XYIMSR-04) . […]
eluded at 35.5 min. MS, calculated for C H AlFN N Heart, lungs, pancreas, spleen, fat, brain, muscle, small […]
and tumor were collected. Each organ was weighed and Radiosynthesis the tissue radioactivity was measured with an automated gamma counter (1282 Compugamma CS, Pharmacia/
For convenience, Na18F in saline purchased from LKBNuclear, Inc., Mt. […] Due to was calculated by comparison with samples of a standard […]
Radiosynthesis of [Al18F]XYIMSR-04. 400μg of Data were expressed as mean ± standard deviation XYIMSR-04 in 200 μL water/Ethanol 1:1 was added to (SD). […] To this mixture, 20 μL of 2 mM AlCl3/NaOAc significance was calculated using a paired t test. […]

CAIX [2] = biological target: T1, CAIX; parameters: method as in PMID 26418876; conditions: positive control, reported value; read-out: IC50 (binding to CAIX, same method); cited from earlier work

| SMILES | IC50 (CAIX [1]) [nM] | IC50 (CAIX [2]) [nM] |
| --- | --- | --- |
| CC(CCC(=O)NC(CC(=O)NC(CC(=O)NC(CCCCn1cc(CCCC(=O)Nc2nnc(S(N)(=O)=O)s2)nn1)C(=O)NCCOCCOCCN)C(=O)O)C(=O)O)(c1ccc(O)cc1)c1ccc(O)cc1 (stereo not shown) [Compound 1, reference compound] | 63.6 ± 2.8 | 75.9 |
| CC(CCC(=O)N[C@@H](CC(=O)N[C@@H](CC(=O)N[C@@H](CCCCn1cc(CCCC(=O)Nc2nnc(S(N)(=O)=O)s2)nn1)C(=O)NCCOCCOCCNC(=O)C[N+]12CC[N+]34CC[N+]5(CC1)CC(=O)[O][Al-3]235([F])[O]C(=O)C4)C(=O)O)C(=O)O)(c1ccc(O)cc1)c1ccc(O)cc1 (stereo partly shown) [[Al^19F]XYIMSR-04] | 96.7 ± 3.3 |  |
| CC(CCC(=O)N[C@@H](CC(=O)N[C@@H](CC(=O)N[C@@H](CCCCn1cc(CCCC(=O)Nc2nnc(S(N)(=O)=O)s2)nn1)C(=O)NCCOCCOCCNC(=S)Nc1ccc(CC2CN3CCN(CCN2CC(=O)O)CC(=O)[O][Cu][O]C(=O)C3)cc1)C(=O)O)C(=O)O)(c1ccc(O)cc1)c1ccc(O)cc1 (stereo partly drawn) [[^63/65Cu]XYIMSR-06, 2,2′,2″-(2-(4-(3-((11S,15S,19S)-15,19-Dicarboxy-24,24-bis(4-hydroxyphenyl)-10,13,17,21-tetraoxo-11-(4-(4-(4-oxo-4-((5-sulfamoyl-1,3,4-thiadiazol-2-yl)amino)butyl)-1H-1,2,3-triazol-1-yl)butyl)-3,6-dioxa-9,12,16,20-tetraazapentacosyl)thioureido)benzyl)-1,4,7-triazonane-1,4,7-triyl)triacetic acid] | 156 ± 4.3 |  |
